Test [1] deals with IFNg on ConA 1° splenocytes. Briefly: Inhibition of IFNγ release from ConA-stimulated splenocytes. The class given is cell-based, mouse. The conditions noted are these: ConA-stimulated Balb/c splenocytes, 18-24 hours, ELISA. The method, then: T-lymphocytes obtained from mice spleens are a suitable sample for studying the activation properties of this immunologically important cell type. T-lymphocytes are the main regulators for inflammation. Concanavalin A (ConA) is an effective activator of T-lymphocytes, which allows T-lymphocytes to proliferate and produce inflammatory cytokines, such as Interferon (IFNγ) and regulatory cytokines, such as Interleukin 10 (IL-10).
The spleens were transferred onto mesh screen containing 10 ml of ice cold RPMI-5 (1× sodium pyruvate and 5% FBS) and gently ground with a pestle. The cell suspensions were centrifuged at 1500 rpm for 6 minutes at 4° C. […] The supernatant was discarded and the pellet washed two additional times. The cells were resuspended in RPMI-5 and the cell suspensions combined. The cells were counted and their concentration was adjusted to 2.8×10^6 cells/ml using RPMI-5.
(§1) The working concentration of ConA was […]. A 20× working concentration of Concanavalin A was […] was prepared using RPMI-5. The test compounds, dimethylsulfoxide (DMSO) negative vehicle control and staurosporine positive control were diluted twenty times using RPMI-5. Ten μL each of DMSO and staurosporine were combined with 180 μl of medium containing splenocytes in the wells, and 10 μl of 50 μg/ml ConA was immediately added. Medium without ConA was added to the control wells. […] The plates were incubated at 37° C. in 5% CO2 in humidified conditions overnight (18-24 hours) for INFγ.
At the completion of the stimulation described above, the plates were spun at 2000 rpm for 10 minutes. The supernatants (100 μl) from each well were transferred to fresh plates for INFγ analysis by ELISA.
INFγ levels in the supernatants from stimulated lymphocytes were determined with PharMingen's OptEIA™ INFγ Kit (PharMingen) according to manufacturer's directions. The data, shown in Table 2 infra, is represented as a percentage of INFγ inhibition by the following formula: INFγ inhibition=100−(AVG treatment/AVG DMSO control)*100.

The test system of another test is K5P5 podocyte cell line. Briefly: Survival assay in podocytes (PAN treatment, MTS). Type of test: cell-based, murine. Conditions: Mus musculus; PAN treated, MTS. The text has this: The treatment of glomerular visceral epithelial cells (podocytes) with high concentrations of puromycin aminonucleoside (PAN) causes significant cytotoxic effects. An assessment of cell viability subsequent to a cytotoxic exposure can be judged qualitatively by examining changes in cell phenotype after staining with crystal violet or determined quantitatively by employing a cytotoxic assay using the soluble tetrazolium salt [3-(4,5-dimethylthiazol-2-yl)-5-(3-carboxymethoxyphenyl)-2-(4-sulfophenyl)-2H-tetrazolium, inner salt] (MTS). Such a system can be used to evaluate the survival effects that ILK compounds have on podocytes following exposure to PAN or other cytotoxic agents.
The cell line employed for the podocyte model was the murine K5P5. […] The cells should be propagate to a maximum of 20 passages.
The flasks were incubated at 37° C., 5% CO2 for 3 days.
The flasks were incubated at 37° C., 5% CO2 for 4 days.
Cells were trypsinized (0.25%), collected from the tissue culture flasks centrifuged, resuspended and counted. […] The flasks were incubated at 37° C., 5% CO2 for 3 days.
10 μl of this 10× compound solution is added to the 80 μl of cells already present in the 96-well plates. For cell undergoing cytotoxic treatment, puromycin aminonuceloside (PAN, Sigma P7130) was added at a 10× concentration to 90 μl of cells. The positive control is PAN treatment without compound. The negative control is 100% DMSO diluted to the same factor as the compounds without PAN.
The plates are incubated at 37° C., 5% CO2 for 48 to 72 hours depending on the PAN concentration (i.e. lower concentrations of PAN required a longer incubation period). The medium is aspirated after plates are spun at 2400 rpm for 10 min at ambient temperature. 100 μl of 1×DPBS (without CaCl2, without MgCl2) is added to each well.
The MTS (Promega) is prepared under low lighting conditions by dissolving 4.0 g of MTS in 1.8 I of 1×DPBS. The solution is allowed to sit for 10 minutes and pH adjusted to 6.2. […] Absorbance is measured at 490 nm wavelength with a microplate reader.

The test system of another test is TNFa on macrophages. The test is described as follows: Inhibition of TNFα release from stimulated macrophages. The class given is cell-based, mouse. Conditions: Mus musculus, Macrophage; LPS and IFN-γ stimulated primary macrophages, ELISA. The method, then:
Peritoneal exudate macrophages were isolated by peritoneal lavage with ice-cold sterile physiological saline 24 hours after intraperitoneal injection of BALB/c mice with 0.5 mL of sterile Zymosan A (1 mg/0.5 mL 0.9% saline). […] Murine primary macrophage will get activated following incubation with LPS in the presence of sub-optimal doses of IFN-γ. […] TNF-αlevels in the supernatants from stimulated macrophages were determined with PharMingen's OptEIA TNF-α kit (PharMingen). The experiment was performed at room temperature, about 21° C., unless otherwise stated. The microwells (F8 MaxiSorp™ Loose/Nunc-Immuno Module; Gibco/BRL) were coated with 100 μl/well of capture antibody (at the recommended concentration) and incubated overnight at 4° C. […] Next, the solution was removed and the plates were washed 5× with wash buffer. The TNF-αanalysis was initiated by adding duplicate samples (100 μl/well) or standards (100 μl/well) in diluent buffer which were incubated for 2 h. The solution was removed and the plates washed 5× with wash buffer. Enzyme reagent (100 μl) containing biotinylated mouse TNF-αmonoclonal antibody and avidin-horseradish peroxidase conjugate (at concentrations recommended by the manufacturer) was added to each well. The plate was incubated for 1 hour, the solution removed, and the plates washed 7× with wash buffer. […] Colour development was terminated by adding 50 μl of 2N H2SO4. […] Peritoneal exudate macrophages were isolated by peritoneal lavage with ice-cold sterile physiological saline 24 hours after intraperitoneal injection of BALB/c mice with 0.3 ml of sterile zymosan A (1 mg/0.5 mL 0.9% saline). […] All treatments were replicated six times. Cells were incubated for an additional 24 hours, and cell free culture supernatants from each well were collected for NO and cytokine determination. The remaining cells were stained with crystal violet to determine effect of the compound on cell survival.
On the technique in general: An ELISA detects its analyte on a solid surface through an enzyme-linked reagent.

Another test deals with macrophages. Briefly: Survival of macrophages. Conditions: Mus musculus, Macrophage; stimulated primary macrophages. The class given is cell-based, mouse. The method, then: Peritoneal exudate macrophages were isolated by peritoneal lavage with ice-cold sterile physiological saline 24 hours after intraperitoneal injection of BALB/c mice with 0.3 ml of sterile zymosan A (1 mg/0.5 mL 0.9% saline). […] 1.5×10^5 cells/well were seeded in 96-well plates and followed by 3 hour incubation at 37° C. with 5% CO2 (macrophages were allowed to attach) cells were stimulated with LPS ([…]/mL) and IFN-γ (100 U/mL) in the absence or presence of the test compounds. All treatments were replicated six times. Cells were incubated for an additional 24 hours, and cell free culture supernatants from each well were collected for NO and cytokine determination. The remaining cells were stained with crystal violet to determine effect of the compound on cell survival.

The next test has as its system MCP1 on HUVECS. Briefly: Inhibition of MCP-1 release from TNFα-stimulated HUVEC. The class given is cell-based, human. Conditions: Homo sapiens, 18-24 hours, ELISA. An excerpt: The activation of endothelial cells by pro-inflammatory cytokine TNF-α leads to the production of several chemokines. The release of these chemokines play an important role in leukocyte trafficking and extravasation of leukocytes into tissue during inflammation. MCP-1 and IL-8 are among the chemokines released upon stimulation of human endothelial cells (HUVECs) by TNFα, and contribute to migration of monocytes to the sites of inflammation. Cells should not be passaged more than 6 times.
Cells were maintained and grown in tissue culture flasks (T75) in endothelial cell growth medium (EGM, Clonetics) containing 5 additional supplements (EGM-5) in medium [human recombinant endothelial growth factor (hEGF), hydrocortisone (HC), bovine brain extract (BBE), fetal bovine serum (FBS) and Gentamycin (GA)] incubated at 37° C., 5% CO2. The cells should be propagated a maximum of 20 passages.
The plates were incubated overnight at 37° C., 5% CO2 to enable the cells to attach and grow.
The working concentration of TNFα was 1,000 pg/ml. A twenty times working concentration of TNFα was 20,000 pg/ml was prepared using EGM-5. The test compounds, DMSO negative vehicle control and staurosporine positive control were diluted 20× using EGM-5. Ten μL each of the compounds, DMSO and staurosporine were combined with 180 μl of medium containing HUVEC cells. Immediately following the addition of the compounds, 10 μl of […] TNFα was added to the wells. Medium without TNFα was added to the control wells. […] The plates were incubated at 37° C. in 5% CO2 in humidified conditions overnight (18-24 hours) for TNFα.
At the completion of the stimulation, the plates were spun at 2000 rpm for 10 minutes. The supernatants from each well were transferred to fresh plates for MCP1 analysis by ELISA.
[…] were determined with PharMingen's OptEIA™ MCP1 Kit (PharMingen) according to manufacturer's instructions.
The data is represented as a percentage of MCP1 inhibition by the following formula: % MCP1 inhibition=100−(AVG treatment/AVG DMSO control)*100.

Another test deals with ConA 1° splenocytes. The test is described as follows: Survival of ConA 1° splenocytes (cytotoxicity by MTS staining). Conditions: ConA-stimulated splenocytes. Type of test: cell-based, mouse. The method, then:
as §1
(MTS). The MTS solution was made fresh and under low light. The electron coupling reagent phenazine methosulfate (PMS) was added at the time of the assay. Twenty μL of MTS solution per 100 μl of tissue culture medium was added to each well. The plates were incubated 37° C. for 4 hours for unstimulated and 18-24 ConA stimulated splenocytes. The absorbance was read at 490 nm wavelength. A kit available to do this assay is “CellTiter 96® AQ Kit AQueous Kit (G5421)” by Promega.

Here are results for 14 compounds from patent US8754233B2, “Pyrazolylbenzothiazole derivatives and their use as therapeutic agents” (Dermira (Canada), Inc., priority 2002, dated 2014).

A word on the IC50: it is the point on the concentration scale where inhibition reaches its midpoint. A low value points to inhibition by little substance.

Compound `CNS(=O)(=O)c1cc2sc(-c3c(N)n[nH]c3C)nc2cc1F` [2-(3-Amino-5-methyl-1H-pyrazol-4-yl)-5-fluorobenzothiazole-6-sulfonic acid methylamide] displayed an IC50 in test [1] (Mus musculus, Splenocyte) of 0.368 µM.
`CNS(=O)(=O)c1ccc2nc(-c3c(N)n[nH]c3C)sc2c1` [2-(3-Amino-5-methyl-1H-pyrazol-4-yl)benzothiazole-6-sulfonic acid methylamide] gave an IC50 in the test on K5P5 podocyte cell line of 12.5 µM.
As to `Cc1n[nH]cc1-c1nc2ccccc2s1` [2-(3-Methyl-1H-pyrazol-4-yl)-benzothiazole], the IC50 in the test on TNFa on macrophages, in the test on macrophages and with MCP1 on HUVECS was above 25 µM each time.
For the compound `Nc1n[nH]c(CCCO)c1-c1nc2ccccc2s1` [3-(5-Amino-4-benzothiazol-2-yl-2H-pyrazol-3-yl)-propan-1-ol], the figures for the IC50 in the test with TNFa on macrophages and in the test on MCP1 on HUVECS were above 25 µM and around 25 µM, respectively.
For `COc1cc2sc(-c3c(-c4ccco4)n[nH]c3N)nc2cc1F` [4-(5-Fluoro-6-methoxybenzothiazol-2-yl)-5-furan-2-yl-2H-pyrazol-3-ylamine], the IC50 in the test with K5P5 podocyte cell line came to 2.5 µM.
As to `COc1cc2sc(-c3c(-c4ccncc4)n[nH]c3N)nc2cc1F` [4-(5-Fluoro-6-methoxybenzothiazol-2-yl)-5-pyridin-4-yl-2H-pyrazol-3-ylamine], the IC50 is above 25 µM in the test with TNFa on macrophages; above 25 µM in the test with ConA 1° splenocytes (Mus musculus, Splenocyte); above 25 µM in the test with macrophages; above 25 µM in the test with MCP1 on HUVECS.
For `Cc1cc2sc(-c3cn[nH]c3N)nc2cc1F` [4-(5-Fluoro-6-methylbenzothiazol-2-yl)-2H-pyrazol-3-ylamine], the IC50 was above 25 µM in test [1] (Mus musculus, Splenocyte) and above 25 µM in the test with ConA 1° splenocytes (Mus musculus, Splenocyte).
For the compound `Cc1n[nH]c(N)c1-c1nc2ccc(Cl)cc2s1` [4-(6-Chlorobenzothiazol-2-yl)-5-methyl-2H-pyrazol-3-ylamine], the IC50 in the test on TNFa on macrophages was above 25 µM; with ConA 1° splenocytes (Mus musculus, Splenocyte) it was above 25 µM.
Consider `Cc1n[nH]c(N)c1-c1nc2ccc(CN(C)C)cc2s1` [4-(6-Dimethylaminomethylbenzothiazol-2-yl)-5-methyl-2H-pyrazol-3-ylamine], for which the IC50 in the test on K5P5 podocyte cell line was found to be 12.5 µM.
Turning to `Nc1n[nH]cc1-c1nc2ccc(F)cc2s1` [4-(6-Fluorobenzothiazol-2-yl)-1H-pyrazol-3-ylamine], the IC50 with TNFa on macrophages is above 25 µM; in the test with macrophages, above 25 µM; in the test with MCP1 on HUVECS it was around 25 µM.
Take `COc1ccc2nc(-c3c(N4CCNCC4)n[nH]c3N)sc2c1` [4-(6-Methoxybenzothiazole)-5-piperizin-1-yl-2H-pyrazol-3-ylamine]: the IC50 in test [1] was determined as 5.9 µM; in the test on ConA 1° splenocytes, 20.5 µM.
Take `Nc1[nH]nc(N2CCNCC2)c1-c1nc2ccccc2s1` [4-Benzothiazol-2-yl-5-piperazin-1-yl-2H-pyrazol-3-ylamine]: the IC50 in the test on TNFa on macrophages and in the test with macrophages was above 25 µM in each case.
In the case of `CNCc1ccc2nc(-c3c(C)n[nH]c3N)sc2c1` [5-Methyl-4-(6-methylaminomethylbenzothiazol-2-yl)-2H-pyrazol-3-ylamine], the IC50 was 0.5 µM in test [1] (Mus musculus, Splenocyte) and 0.9 µM in the test with ConA 1° splenocytes (Mus musculus, Splenocyte).
Take `COc1cc2sc(-c3c(NCCCN(C)C)n[nH]c3N)nc2cc1F` [N^3-(3-Dimethylaminopropyl)-4-(5-fluoro-6-methoxybenzothiazole)-1H-pyrazole-3,5-diamine]: the results for the IC50 (in test [1]; in the test on ConA 1° splenocytes) were 10.2 µM and around 25 µM, respectively.
